Values of other authors, collected in patent US8420367B2, “Polynucleotides encoding mutant hydrolase proteins with enhanced kinetics and functional expression” (Promega Corporation, priority 2006, dated 2013).

Molecular target: tetracysteine domain in a recombinant protein

Structure (SMILES): O=C1OC2(c3ccccc31)c1ccc(O)c([As]3SCCS3)c1Oc1c2ccc(O)c1[As]1SCCS1 [FLASH, 4′,5′-bis(1,3,2-dithioarsolan-2-yl)fluorescein]
- dissociation constant: nanomolar or lower
